In patent publication US20230330093A1, “APPLICATION OF NITROGEN-CONTAINING SATURATED HETEROCYCLIC COMPOUND” (SHANGHAI PHARMACEUTICALS HOLDING CO., LTD., priority 2020, published 2023):
Values joined by “and” are separate entries in the source; they are usually repeats but may differ in a detail not shown here. Equal values may be shown once.

Tested on: rhesus monkeys with spontaneous chronic kidney disease
Assay: Effect on serum K+, 8-week administration
Settings: 5mg/kg (n = 6)
Protocol: In the trial, animals were brought in three stages. In the first stage, there were two groups: 3 animals (No. 257, No. 4721, No. 287) in a group with 5 mg/kg of the malate of compound of formula I, and 2 animals (No. 1029, No. 4713) in the placebo group. […] In the third stage, there were two groups: 5 animals (No. 4829, No. 6501, No. 287, No. 4721, No. 2091) in a group with 2 mg/kg of the malate of compound of formula I, and 5 animals (No. 1567, No. 4861, No. 5453, No. 6653, No. 5073) in a group with 1 mg/kg of the malate of compound of formula I.
Serum potassium, twice before administration, once every 2 weeks during the administration period;
Blood biochemical and urine index detection equipment: Roche cobas6000 analyzer series C501 module detection. ELISA kit was used for NT-proBNP test.

SMILES: COC(=O)NCCCn1nc(C(C)N(C(=O)C2CNCCO2)C2CC2)c2ccc(C)nc21.O=C(O)CC(O)C(=O)O (stereo not drawn) [malate of compound of Formula 1]
- K^+ (2 weeks, Mean ± SD): 4.98 ± 0.73 mmol/L
- K^+ (2 weeks, individual animals): 4.91 mmol/L and 4.55 mmol/L and 6.07 mmol/L and 5.37 mmol/L and 5.05 mmol/L and 3.93 mmol/L
- K^+ (4 weeks, Mean ± SD): 4.49 ± 0.62 mmol/L
- K^+ (4 weeks, individual animals): 4.33 mmol/L and 4.55 mmol/L and 5.46 mmol/L and 4.50 mmol/L and 4.61 mmol/L and 3.51 mmol/L
- K^+ (6 weeks, Mean ± SD): 4.57 ± 0.66 mmol/L
- K^+ (6 weeks, individual animals): 4.53 mmol/L and 4.16 mmol/L and 4.77 mmol/L and 4.76 mmol/L and 5.58 mmol/L and 3.60 mmol/L
- K^+ (8 weeks, Mean ± SD): 4.49 ± 0.70 mmol/L
- K^+ (8 weeks, individual animals): 4.26 mmol/L and 4.64 mmol/L and 4.49 mmol/L and 5.28 mmol/L and 5.00 mmol/L and 3.26 mmol/L
- K^+ (Baseline 1, Mean ± SD): 4.89 ± 0.35 mmol/L
- K^+ (Baseline 1, individual animals): 4.78 mmol/L and 4.54 mmol/L and 4.93 mmol/L and 5.41 mmol/L and 5.16 mmol/L and 4.52 mmol/L
- K^+ (Baseline 2, Mean ± SD): 4.81 ± 0.48 mmol/L
- K^+ (Baseline 2, individual animals): 5.43 mmol/L and 4.74 mmol/L and 4.03 mmol/L and 5.20 mmol/L and 4.75 mmol/L and 4.72 mmol/L
